According to BindingDB's records for doi:10.1016/j.bmc.2003.11.015 (Bristol-Myers Squibb Pharmaceutical Research Institute, 2004):
Counter-ions that a name gives are not always drawn.

Tests used:
D(2) dopamine receptor [1] = biological target: D(2) dopamine receptor (Rattus norvegicus, UniProt P61169)
D(1A) dopamine receptor = D(1A) dopamine receptor (Rattus norvegicus, UniProt P18901)
D(2) dopamine receptor [2] = biological target: D(2) dopamine receptor (Homo sapiens, UniProt P14416)
Sequence of D(2) dopamine receptor (Homo sapiens, UniProt P14416) (P14416 whole entry): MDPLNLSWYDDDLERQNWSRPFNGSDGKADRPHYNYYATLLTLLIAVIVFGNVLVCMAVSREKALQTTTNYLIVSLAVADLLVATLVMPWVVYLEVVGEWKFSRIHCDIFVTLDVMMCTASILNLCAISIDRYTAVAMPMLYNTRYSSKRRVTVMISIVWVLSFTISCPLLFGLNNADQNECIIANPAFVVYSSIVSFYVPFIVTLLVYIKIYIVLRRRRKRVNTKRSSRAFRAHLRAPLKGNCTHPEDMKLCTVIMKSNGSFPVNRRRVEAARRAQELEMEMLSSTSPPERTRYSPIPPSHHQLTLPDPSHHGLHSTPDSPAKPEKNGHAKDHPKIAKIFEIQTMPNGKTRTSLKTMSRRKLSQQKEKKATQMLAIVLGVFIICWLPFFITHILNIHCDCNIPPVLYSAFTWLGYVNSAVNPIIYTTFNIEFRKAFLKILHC

Sequence of D(1A) dopamine receptor (P18901 whole entry): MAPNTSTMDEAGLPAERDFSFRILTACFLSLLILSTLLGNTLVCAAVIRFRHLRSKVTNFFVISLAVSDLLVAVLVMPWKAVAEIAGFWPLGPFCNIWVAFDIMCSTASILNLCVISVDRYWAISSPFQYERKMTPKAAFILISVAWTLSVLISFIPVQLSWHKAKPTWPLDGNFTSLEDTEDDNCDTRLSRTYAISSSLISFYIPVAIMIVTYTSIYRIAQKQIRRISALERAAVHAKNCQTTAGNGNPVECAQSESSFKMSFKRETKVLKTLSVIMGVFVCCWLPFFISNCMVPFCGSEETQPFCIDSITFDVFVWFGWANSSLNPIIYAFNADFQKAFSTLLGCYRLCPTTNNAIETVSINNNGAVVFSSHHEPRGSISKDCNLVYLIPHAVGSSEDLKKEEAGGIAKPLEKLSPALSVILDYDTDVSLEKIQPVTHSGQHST
Sequence of D(2) dopamine receptor (Rattus norvegicus, UniProt P61169) (P61169 whole entry): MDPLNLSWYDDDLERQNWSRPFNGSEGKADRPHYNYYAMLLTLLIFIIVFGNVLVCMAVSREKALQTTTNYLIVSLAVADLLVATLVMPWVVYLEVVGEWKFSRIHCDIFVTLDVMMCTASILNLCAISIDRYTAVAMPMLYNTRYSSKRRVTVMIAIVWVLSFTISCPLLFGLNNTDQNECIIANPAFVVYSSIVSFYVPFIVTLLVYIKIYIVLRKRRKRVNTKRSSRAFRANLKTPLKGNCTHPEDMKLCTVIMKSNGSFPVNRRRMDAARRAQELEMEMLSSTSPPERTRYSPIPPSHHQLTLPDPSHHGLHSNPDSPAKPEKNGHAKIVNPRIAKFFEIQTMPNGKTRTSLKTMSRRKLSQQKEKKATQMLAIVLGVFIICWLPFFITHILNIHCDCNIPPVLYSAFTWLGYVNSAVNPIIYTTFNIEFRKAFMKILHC

SMILES	Ki (D(2) dopamine receptor [1]) [nM]	Ki (D(1A) dopamine receptor) [nM]	Ki (D(2) dopamine receptor [2]) [nM]
Oc1cc(Cl)c2c(c1O)Cc1cccc3c1[C@H]2CNC3 (racemic) [CAS_0]	16	1500	–
CCc1ccc2c3c1Cc1c(ccc(O)c1O)[C@@H]3CNC2 [6-ethyldinapsoline hydrobromide]	–	14	27
Oc1ccc2c(c1O)Cc1cccc3c1[C@H]2CNC3C(F)(F)C(F)(F)C(F)(F)C(F)(F)F (mixture of isomers) [NSC_0]	78	340	–
CC1(C)c2cccc3c2[C@@H](CNC3)c2ccc(O)c(O)c21 (racemic) [NSC_0]	390	870	–
Oc1ccc2c(c1O)Cc1c(F)ccc3c1C2CNC3 (centres undefined) [NSC_0]	170	3000	–
Oc1ccc2c(c1O)Sc1cccc3c1C2CNC3 (centres undefined) [1,2,3,11b-Tetrahydro[1]benzothiopyrano[4,3,2-de]isoquinolin-8,9-diol]	34.5	536	–
Oc1ccc2c(c1O)Cc1c(F)ccc3c1[C@H]2CNC3 [NSC_0]	7	–	–
Oc1ccc2c(c1O)Cc1ccc(O)c3c1[C@H]2CNC3 [4-hydroxydinapsoline hydrobromide]	15	72	–
CN1Cc2cccc3c2[C@@H](C1)c1ccc(O)c(O)c1C3 (racemic) [NSC_0]	70	382	–
CCCN1Cc2cccc3c2[C@@H](C1)c1ccc(O)c(O)c1C3 (racemic) [(+/-)-2-propyldinapsoline hydrobromide]	–	2000	15
CC1c2cccc3c2[C@@H](CN1C)c1ccc(O)c(O)c1C3 (mixture of isomers) [NSC_0]	–	9500	> 10000
O=[N+]([O-])c1cc(O)c(O)c2c1[C@@H]1CNCc3cccc(c31)C2 (racemic) [NSC_0]	1100	> 10000	–
CCC1c2cccc3c2[C@@H](CNC3)c2ccc(O)c(O)c21 (mixture of isomers) [(+/-)-7-ethyldinapsoline hydrobromide]	440	430	–
COC(=O)CC1c2cccc3c2[C@@H](CNC3)c2ccc(O)c(O)c21 (mixture of isomers) [(+/-)-7-methoxycarbonylmethyldinapsoline]	990	2400	–
CCCCC1NC[C@H]2c3ccc(O)c(O)c3Cc3cccc1c32 (mixture of isomers) [(+/-)-3-n-butyldinapsoline hydrobromide]	–	299	–
CC1NC[C@H]2c3ccc(O)c(O)c3Cc3cccc1c32 (mixture of isomers) [(+/-)-3-methyldinapsoline hydrobromide]	–	2000	40
CC1c2cccc3c2[C@@H](CNC3)c2ccc(O)c(O)c21 (mixture of isomers) [(+/-)-7-methyldinapsoline hydrobromide]	160	139	–
Oc1ccc2c(c1O)Cc1ccc(F)c3c1[C@H]2CNC3 [NSC_0]	28	69	–
